Assay results taken from patent US8486900B2, “Method for preparing a Centella asiatica extract rich in madecassoside and in terminoloside” (Bayer Consumer Care AG, priority 2002, dated 2013).

Key:
IL-8 = assay: IFN-γ-induced release of IL-8 by normal human keratinocytes; type: cell-based; conditions: for IL-8: Example 12, K02-1H6, IFN-γ 1000 U/ml, 48 h + 24 h
Procedure: (§1) In order to evaluate the anti-inflammatory activity of terminoloside, of madecassoside and of the mixture of heterosides, we studied the modulatory effects of these three active agents with respect to the production and release of proinflammatory epidermal cytokines (IL-1α, IL-8, PGE-2) by human keratinocytes in culture, subjected to an irritative stress induced either with interferon-gamma (IFN-γ) or with PMA. Human keratinocytes were isolated from human skin. The cells were cultured in serum-free KGM medium (Keratinocyte Growth Medium, sold by the company Clonetics®), according to the usual techniques set up in the laboratory, at 37° C. in a humid air-CO2 (95%-5%) atmosphere. The cells were seeded into 25 cm^2 flasks and passaged regularly before reaching confluency. The principle of the assay is based on evaluating the production of proinflammatory cytokines by human keratinocytes, in response to an irritative stress. The method is based on measuring the intracellular amount of IL-1α and of the amounts of IL-8 and of PGE-2 released into the extracellular medium by keratinocytes cultured in the absence and in the presence of the products being studied, and stimulated even with interferon-gamma (IFN-γ) or with PMA (phorbol-12-myristate-13-acetate).
(§2) The study was carried out on keratinocytes isolated from foreskin of young children (strain K02-1H6).
(§3) 1. Treatment of the cells for 48 h with the product being studied before induction of the irritative stress; 2. induction of the irritative stress: IFN-γ (1000 U/ml); 3. incubation of the “activated” cells, for 24 h, in the presence of the product being studied; 4. assay: IL-8 (extracellular) and IL-1α (intracellular). Cellular protein assay.
Tables 32 to 34 below group together the amounts of IL-8 obtained after activation of the cells (+IFN-γ), and also the basal amounts (−IFN-γ). The IFN-γ-induced production of IL-8 and the anti-inflammatory activity (AIA) were calculated, for each concentration of active agent, according to: AIA=[(IL-8(control cells+IFN)−[…]/IL-8(control cells+IFN)]×100

[1] = system: HaCaT human keratinocytes; assay: Cytotoxicity, Neutral Red colorimetric assay on HaCaT human keratinocytes; type: cell-based; conditions: for Viability (24 h), % of control / Viability (72 h), % of control: Example 12, HaCaT
Procedure: The cytotoxicity was studied on HaCaT human keratinocytes seeded into 96-well plates at a rate of 20×10^3, broad range, and 10×10^3, limited range, cells per well. The cell viability is evaluated by means of a colorimetric assay with Neutral Red. Neutral Red is a weakly cationic dye that penetrates cell membranes by means of a nonionic diffusion phenomenon and binds intracellularly to the phosphate and/or carboxylic groups of the lysosomal matrix. Modifications in the accumulation and retention of Neutral Red are observed when the cell membranes are damaged. The optical density of the solution obtained after incubation of the cells in the presence of Neutral Red is therefore proportional to the number of living cells.
A broad range of 9 concentrations, from 0.001 to 1 mg/ml, was initially tested. The various test solutions were prepared in DMEM medium, […], supplemented with 10 vol % of FCS, fetal calf serum. […] The cell viability was evaluated by means of a Neutral Red colorimetric assay, after 72 hours of incubation. […] From 1 mg/ml, a slight dose-dependent cytotoxic effect is observed. […]
A second limited range of between 0.075 and 5 mg/ml was tested. […] The cell viability was evaluated by means of a Neutral Red colorimetric assay, after 72 hours of incubation. The results obtained were similar to those recorded in the absence of DMSO.

IL-1α = assay: IFN-γ-induced intracellular IL-1α production by normal human keratinocytes; type: cell-based; conditions: for IL-1α (intracellular): K02-1H6, IFN-γ 1000 U/ml, 48 h + 24 h
Procedure: as §1, §2, §3
Tables 34 to 36 below group together the intracellular amounts of IL-1α after activation of the cells (+IFN-γ), and the basal amount (−IFN-γ). The IFN-γ-induced production of IL-1α and the anti-inflammatory activity (AIA) were calculated for each concentration according to: Il-1α production=IL-1α(+IFN)−IL-1α(−IFN) AIA=[(IL-1α production(control cells)−IL-1α production(treated cells)/IL-1α production(control cells)]×100

Compound: CC1OC(O[C@@H]2C(CO)OC(OCC3OC(OC(=O)C4CC(C)(C)CC5C6=CCC7C(CC(O)C8C(C)(CO)C(O)C(O)CC78C)C6(C)CCC45)[C@@H](O)C(O)[C@@H]3O)[C@@H](O)C2O)[C@@H](O)C(O)[C@H]1O (stereo partly drawn) [Terminoloside, 1-[O-α-L-rhamnopyranosyl-(1-4)-O-β-glucopyranosol-(1-6)]-O-β-D-glucopyranose 2α,3β,6β,23-tetrahydroxyolea-12-en-28-oate]
- IL-8 (IL-8; 0.1 mg/ml): 0.862 pg/μg prot
- IL-8 (IL-8; 0.25 mg/ml): 0.762 pg/μg prot
- IL-8 (IL-8; 0.5 mg/ml): 0.708 pg/μg prot
- IL-8 (IL-8; 1 mg/ml): 0.492 pg/μg prot
- inhibition at 100 µg/mL (IL-8; Homo sapiens, Keratinocyte, Example 12, IFN-γ 1000 U/ml, 0.1 mg/ml, read-out: Anti-inflammatory activity (%), IL-8): 0%
- inhibition at 250 µg/mL (IL-8; Homo sapiens, Keratinocyte, Example 12, IFN-γ 1000 U/ml, 0.25 mg/ml, read-out: Anti-inflammatory activity (%), IL-8): 9%
- inhibition at 500 µg/mL (IL-8; Homo sapiens, Keratinocyte, Example 12, IFN-γ 1000 U/ml, 0.5 mg/ml, read-out: Anti-inflammatory activity (%), IL-8): 15%
- inhibition at 1000 µg/mL (IL-8; Homo sapiens, Keratinocyte, Example 12, IFN-γ 1000 U/ml, 1 mg/ml, read-out: Anti-inflammatory activity (%), IL-8): 42%
- Viability (24 h), % of control ([1]; 0.05 mg/ml): 105%
- Viability (24 h), % of control ([1]; 0.1 mg/ml): 104%
- Viability (24 h), % of control ([1]; 0.25 mg/ml): 105%
- Viability (24 h), % of control ([1]; 0.5 mg/ml): 105%
- Viability (24 h), % of control ([1]; 1 mg/ml): 104%
- Viability (24 h), % of control ([1]; 2.5 mg/ml): 100%
- Viability (24 h), % of control ([1]; 5 mg/ml): 81%
- Viability (24 h), % of control ([1]; 10 mg/ml): 73%
- Viability (72 h), % of control ([1]; 0.1 mg/ml): 100%
- Viability (72 h), % of control ([1]; 0.25 mg/ml): 101%
- Viability (72 h), % of control ([1]; 0.5 mg/ml): 101%
- Viability (72 h), % of control ([1]; 0.75 mg/ml): 103%
- Viability (72 h), % of control ([1]; 1 mg/ml): 102%
- Viability (72 h), % of control ([1]; 2.5 mg/ml): 103%
- Viability (72 h), % of control ([1]; 5 mg/ml): 93%
- Viability (72 h), % of control ([1]; 7.5 mg/ml): 86%
- Viability (72 h), % of control ([1]; 10 mg/ml): 69%
- concentrations inducing no significant modification of the cell response to Neutral Red ([1]; HaCaT, 24 h of contact): 2500 µg/mL
- solubility (Solubility): water-soluble
- IL-1α production (+IFN minus −IFN) (IL-1α; 0.1 mg/ml): 6.07
- IL-1α production (+IFN minus −IFN) (IL-1α; 0.25 mg/ml): 5.37
- IL-1α production (+IFN minus −IFN) (IL-1α; 0.5 mg/ml): 4.60
- IL-1α production (+IFN minus −IFN) (IL-1α; 1 mg/ml): 2.31
- inhibition at 100 µg/mL (IL-1α; Homo sapiens, Keratinocyte, IFN-γ 1000 U/ml, 0.1 mg/ml, read-out: Anti-inflammatory activity (%), IL-1α): 17%
- inhibition at 250 µg/mL (IL-1α; Homo sapiens, Keratinocyte, IFN-γ 1000 U/ml, 0.25 mg/ml, read-out: Anti-inflammatory activity (%), IL-1α): 27%
- inhibition at 500 µg/mL (IL-1α; Homo sapiens, Keratinocyte, IFN-γ 1000 U/ml, 0.5 mg/ml, read-out: Anti-inflammatory activity (%), IL-1α): 37%
- inhibition at 1000 µg/mL (IL-1α; Homo sapiens, Keratinocyte, IFN-γ 1000 U/ml, 1 mg/ml, read-out: Anti-inflammatory activity (%), IL-1α): 68%
- IL-1α (intracellular) (IL-1α; 0.1 mg/ml): 8.78 pg/μg prot
- IL-1α (intracellular) (IL-1α; 0.25 mg/ml): 8.08 pg/μg prot
- IL-1α (intracellular) (IL-1α; 0.5 mg/ml): 7.31 pg/μg prot
- IL-1α (intracellular) (IL-1α; 1 mg/ml): 5.02 pg/μg prot
